Laboratory results published in ChEMBL document CHEMBL5614382, “Discovery of a new 1-(phenylsulfonyl)-1H-indole derivative targeting the EphA2 receptor with antiproliferative activity on U251 glioblastoma cell line” (Eur J Med Chem, 2024).

Target: Ephrin type-A receptor 2 (Mus musculus, UniProt Q03145)
Test: Displacement of biotinylated Fc-tagged ephrin-A1 from C/N-terminal 6-His tagged mouse recombinant EphA2 (Ala22 to Ala535 residues) preincubated for 1 hr followed by ephrin-A1-Fc addition and measured after 4 to 5 hrs by ELISA assay

Sequence of Ephrin type-A receptor 2 (Q03145 whole entry): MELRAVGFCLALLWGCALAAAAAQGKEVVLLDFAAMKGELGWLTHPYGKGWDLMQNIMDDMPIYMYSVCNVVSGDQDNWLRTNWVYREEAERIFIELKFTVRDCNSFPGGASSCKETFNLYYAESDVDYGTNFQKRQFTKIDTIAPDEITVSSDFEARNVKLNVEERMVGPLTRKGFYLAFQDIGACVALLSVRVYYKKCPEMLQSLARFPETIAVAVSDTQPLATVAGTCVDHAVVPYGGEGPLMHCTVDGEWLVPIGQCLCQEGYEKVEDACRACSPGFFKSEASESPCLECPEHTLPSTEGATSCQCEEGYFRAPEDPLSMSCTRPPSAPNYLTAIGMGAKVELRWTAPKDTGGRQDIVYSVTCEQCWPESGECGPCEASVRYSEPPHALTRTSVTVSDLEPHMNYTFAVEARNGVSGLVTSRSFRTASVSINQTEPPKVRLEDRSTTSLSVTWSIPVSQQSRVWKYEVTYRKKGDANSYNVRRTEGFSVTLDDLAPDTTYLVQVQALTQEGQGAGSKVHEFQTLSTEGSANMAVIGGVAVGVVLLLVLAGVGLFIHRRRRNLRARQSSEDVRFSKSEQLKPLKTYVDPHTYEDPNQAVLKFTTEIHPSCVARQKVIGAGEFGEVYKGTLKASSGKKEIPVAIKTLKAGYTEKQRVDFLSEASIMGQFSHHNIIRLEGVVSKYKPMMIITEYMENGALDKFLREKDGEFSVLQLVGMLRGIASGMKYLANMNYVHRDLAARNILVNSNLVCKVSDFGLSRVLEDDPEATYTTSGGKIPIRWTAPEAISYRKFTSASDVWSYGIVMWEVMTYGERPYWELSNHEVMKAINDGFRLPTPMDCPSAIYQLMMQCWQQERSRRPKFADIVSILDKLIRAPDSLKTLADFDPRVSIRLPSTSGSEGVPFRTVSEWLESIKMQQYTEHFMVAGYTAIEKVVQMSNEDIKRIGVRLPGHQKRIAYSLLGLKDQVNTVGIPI

Structure (SMILES)	IC50
C[C@H](CCC(=O)N[C@H](CC(=O)O)Cc1cn(S(=O)(=O)c2ccc(C#N)cc2)c2ccccc12)[C@H]1CC[C@H]2[C@@H]3CC=C4C[C@@H](O)CC[C@]4(C)[C@H]3CC[C@]12C	9.9 µM
C[C@H](CCC(=O)N[C@H](CC(=O)O)Cc1cn(S(=O)(=O)c2cccc([N+](=O)[O-])c2)c2ccccc12)[C@H]1CC[C@H]2[C@@H]3CC=C4C[C@@H](O)CC[C@]4(C)[C@H]3CC[C@]12C	38 µM
C[C@H](CCC(=O)N[C@H](CC(=O)O)Cc1cn(S(=O)(=O)c2ccc(F)cc2)c2ccccc12)[C@H]1CC[C@H]2[C@@H]3CC=C4C[C@@H](O)CC[C@]4(C)[C@H]3CC[C@]12C	8.2 µM
C[C@H](CCC(=O)N[C@H](CC(=O)O)Cc1cn(S(=O)(=O)c2ccc(-c3ccccc3)cc2)c2ccccc12)[C@H]1CC[C@H]2[C@@H]3CC=C4C[C@@H](O)CC[C@]4(C)[C@H]3CC[C@]12C	20 µM
Cc1ccc(S(=O)(=O)n2cc(C[C@@H](CC(=O)O)NC(=O)CC[C@@H](C)[C@H]3CC[C@H]4[C@@H]5CC=C6C[C@@H](O)CC[C@]6(C)[C@H]5CC[C@]34C)c3ccccc32)cc1	8.3 µM
Cc1cccc(S(=O)(=O)n2cc(C[C@@H](CC(=O)O)NC(=O)CC[C@@H](C)[C@H]3CC[C@H]4[C@@H]5CC=C6C[C@@H](O)CC[C@]6(C)[C@H]5CC[C@]34C)c3ccccc32)c1	24 µM
C[C@H](CCC(=O)N[C@H](CC(=O)O)Cc1cn(S(=O)(=O)c2cccnc2)c2ccccc12)[C@H]1CC[C@H]2[C@@H]3CC=C4C[C@@H](O)CC[C@]4(C)[C@H]3CC[C@]12C	16 µM
C[C@H](CCC(=O)N[C@H](CC(=O)O)Cc1cn(S(=O)(=O)c2ccc(N)cc2)c2ccccc12)[C@H]1CC[C@H]2[C@@H]3CC=C4C[C@@H](O)CC[C@]4(C)[C@H]3CC[C@]12C	4.7 µM
C[C@H](CCC(=O)N[C@H](CC(=O)O)Cc1cn(S(=O)(=O)c2cccc(C#N)c2)c2ccccc12)[C@H]1CC[C@H]2[C@@H]3CC=C4C[C@@H](O)CC[C@]4(C)[C@H]3CC[C@]12C	24 µM

Further lines, results first:

IC50	Structure (SMILES)
5.6 µM	C[C@H](CCC(=O)N[C@H](CC(=O)O)Cc1cn(S(=O)(=O)c2cccc(N)c2)c2ccccc12)[C@H]1CC[C@H]2[C@@H]3CC=C4C[C@@H](O)CC[C@]4(C)[C@H]3CC[C@]12C
29 µM	C[C@H](CCC(=O)N[C@H](CC(=O)O)Cc1cn(S(=O)(=O)c2cccc(F)c2)c2ccccc12)[C@H]1CC[C@H]2[C@@H]3CC=C4C[C@@H](O)CC[C@]4(C)[C@H]3CC[C@]12C
3.6 µM	C[C@H](CCC(=O)N[C@H](CC(=O)O)Cc1cn(S(=O)(=O)c2ccc([N+](=O)[O-])cc2)c2ccccc12)[C@H]1CC[C@H]2[C@@H]3CC=C4C[C@@H](O)CC[C@]4(C)[C@H]3CC[C@]12C
16 µM	C[C@H](CCC(=O)N[C@H](CC(=O)O)Cc1cn(S(=O)(=O)c2cccc(-c3ccccc3)c2)c2ccccc12)[C@H]1CC[C@H]2[C@@H]3CC=C4C[C@@H](O)CC[C@]4(C)[C@H]3CC[C@]12C
12 µM	C[C@H](CCC(=O)N[C@H](CC(=O)O)Cc1cn(S(=O)(=O)c2cccc(C(F)(F)F)c2)c2ccccc12)[C@H]1CC[C@H]2[C@@H]3CC=C4C[C@@H](O)CC[C@]4(C)[C@H]3CC[C@]12C
6.9 µM	C[C@H](CCC(=O)N[C@H](CC(=O)O)Cc1cn(S(=O)(=O)c2ccoc2)c2ccccc12)[C@H]1CC[C@H]2[C@@H]3CC=C4C[C@@H](O)CC[C@]4(C)[C@H]3CC[C@]12C
5.5 µM	C[C@H](CCC(=O)N[C@H](CC(=O)O)Cc1cn(S(=O)(=O)c2ccsc2)c2ccccc12)[C@H]1CC[C@H]2[C@@H]3CC=C4C[C@@H](O)CC[C@]4(C)[C@H]3CC[C@]12C
